One compound from ChEMBL document CHEMBL3352656 (Bioorg Med Chem Lett, 2015) can be followed below.

Data set [1] is described as follows: Permeability from apical to basolateral side in human Caco2 cells by HPLC-MS/MS method. The format is ADME, cell-based. To be noted: Caco-2, read-out: permeability.
A short description of data set [2]: Permeability from basolateral to apical side in human Caco2 cells by HPLC-MS/MS method. The format is ADME, cell-based. To be noted: Caco-2, read-out: permeability. (In general: Passage across Caco-2 layers is used to estimate intestinal permeability.)
Data set [3] can be described thus: Volume of distribution at steady state in Wistar rat at 0.4 mg/kg, iv by HPLC-MS/MS method. The format is ADME, organism-based. To be noted: in vivo, read-out: Vdss. Details: dose 0.4 mg/kg, route intravenous.
A short description of data set [4]: Mean residence time in Wistar rat at 0.4 mg/kg, iv by HPLC-MS/MS method. Details: dose 0.4 mg/kg, route intravenous. To be noted: in vivo. The format is ADME, organism-based.
Data set [5] can be described thus: Oral bioavailability in Wistar rat at […] by HPLC-MS/MS method. Conditions: in vivo. The format is ADME, organism-based.

For `CC(C)(C)c1cc(NC(=O)[C@@H]2CCCCN2C(=O)N2CCS(=O)(=O)CC2)no1`, the Papp A→B in data set [1] worked out at 20 ×10⁻⁶ cm/s. In addition, in data set [2], the Papp B→A was found to be 22 ×10⁻⁶ cm/s. In addition, in data set [3], the Vd was 0.5 L/kg. Further, in data set [4], the MRT came to 36 min. The compound also gave a bioavailability in data set [5] of 62%.

A word on the MRT: it is the average time that molecules of a dose stay in the body. The bioavailability is dose-corrected exposure relative to a reference, in per cent. The low end stands for poor availability, the high end for good availability.
